For test [1], the target named is T1, Hepatocyte growth factor receptor (Homo sapiens, UniProt P08581). The experiment in a line: Inhibition of c-Met (unknown origin) using poly Glu:Tyr (4:1) as substrate at 10 uM after 60 mins by ELISA relative to control. (ELISA stands for enzyme-linked immunosorbent assay.)
Test [2] relates to BaF3. The experiment in a line: Cytotoxicity against mouse BAF3 cells expressing TPR-Met assessed as growth inhibition at 10 uM after 72 hrs relative to control. The class given is functional. The settings on record: BaF3, 72 h, read-out: GI.
For test [3], the system named is BaF3. The experiment in a line: Cytotoxicity against mouse BAF3 cells expressing TPR-Met assessed as growth inhibition at 1 uM after 72 hrs. It counts as functional, cell-based.
Test [4] addresses T1, Hepatocyte growth factor receptor.
Test [5] concerns BaF3. Description: Cytotoxicity against mouse BAF3 cells expressing TPR-Met assessed as growth inhibition after 72 hrs. To be noted: BaF3, 72 h.
Test [6] in a line: Cytotoxicity against human MKN45 cells assessed as growth inhibition after 72 hrs. The settings on record: MKN-45, 72 h.
Test [7] concerns the target T1, Hepatocyte growth factor receptor. Description: Inhibition of c-Met (unknown origin) using poly Glu:Tyr (4:1) as substrate after 60 mins by ELISA.
Test [8] shares this target. The source holds these as a separate data set.
Test [9] has the same target. Description: Inhibition of c-Met (unknown origin).

The text below walks through data of ChEMBL document CHEMBL3259531, “Discovery of novel type II c-Met inhibitors based on BMS-777607” (Eur J Med Chem, 2014).

The structures appear in SMILES notation. Calls of active or inactive are those of the source. The calls are words filed in the database; no cut-off is given here.

In the case of `COc1cc2nccc(Oc3ccc(NC(=O)c4cccn(-c5ccc(F)cc5)c4=O)cc3F)c2cc1OC`, the inhibition (as a rule, the percentage by which the read-out fell short of the control) in test [1] is 29.7%. Turning to `COc1cc2nccc(Oc3ccc(NC(=O)c4c(I)ccn(-c5ccc(F)cc5)c4=O)cc3F)c2cc1OC`, in the test on BaF3 [2], the inhibition of growth at 10 µM is over 80%. Moreover, the “growth inhibition (GI)” value in the test with BaF3 [3] was “Active”. Turning to `Cc1ccc(NC(=O)C2CCCN(c3ccc(Oc4ccnc(N)c4Cl)c(F)c3)S2(=O)=O)cc1` (stereo not drawn), the IC50 (in general, the concentration that inhibits the measured activity by half) in test [4] is “Not Active”. Regarding `CCOc1ccn(-c2ccc(F)cc2)c(=O)c1C(=O)Nc1ccc(Oc2ccnc(N)c2Cl)c(F)c1` [BMS-777607], the results for the IC50 (in the test with BaF3 [5]; in [6]) were 0.188 µM and 0.286 µM, respectively. With `Nc1nccc(Oc2ccc(N3CCCC(C(=O)Nc4ccc(F)cc4)S3(=O)=O)cc2F)c1Cl` (stereo not drawn), the inhibition entry in [7] was “inactive”. On to `CCOc1ccn(-c2ccc(F)cc2)c(=O)c1C(=O)Nc1ccc(Oc2ccnc3cc(OC)c(OC)cc23)c(F)c1`, for which, in the test with BaF3 [2], the inhibition of growth at 10 µM is over 80%. The values for the half-maximal inhibitory concentration (IC50) (in the test with BaF3 [5]; in [6]) were 0.0195 µM and 0.0397 µM, respectively. `Nc1nccc(Oc2ccc(NC(=O)c3cccn(-c4ccc(F)cc4)c3=O)cc2F)n1` came in with a concentration for half-maximal inhibition (IC50) in test [8] of 0.039 µM.

Consider `COc1cc2nccc(Oc3ccc(NC(=O)c4c(OC)ccn(-c5ccc(F)cc5)c4=O)cc3F)c2cc1OC`, for which the inhibition of growth at 10 µM in the test with BaF3 [2] was over 80%. For the same molecule, the IC50 in the test with BaF3 [5] stood at 0.0363 µM; in test [6], 0.0577 µM. For `O=C(Nc1ccc(Oc2ncnc3[nH]ccc23)c(F)c1)c1cccn(-c2ccc(F)cc2)c1=O`, the inhibition of growth at 10 µM in the test on BaF3 [2] was over 80%. Molecule `CCn1cnc(-c2cc3nccc(Oc4ccc(NC(=S)N5CCN(c6ccc(F)cc6)C5=O)cc4F)c3s2)c1` registered a 50% inhibitory concentration (IC50) in [9] of 0.027 µM. As to `CCOc1ccn(-c2ccc(F)cc2)c(=O)c1C(=O)Nc1ccc(Oc2ncnc3[nH]ccc23)c(F)c1`, the inhibition of growth at 10 µM with BaF3 [2] is over 80%.

As to `Nc1nccc(Oc2ccc(N3CCCC(C(=O)Nc4ccccc4)S3(=O)=O)cc2F)c1Cl` (stereo not drawn), in test [7], the inhibition result was “inactive”.
